In test [1] the test system is human anti-nonαGal (anti-NeuGc). Put plainly: Inhibition of human anti-nonαGal binding to pRBC by sialic acids, flow cytometry. The conditions noted are these: for effect on antibody binding to pRBC: antibodies preincubated with 10 mM sialic acid. Here is the method: FIG. 1. Flow cytometry analysis of human anti-nonαGal. The antibodies were incubated with pRBC (type O) at room temperature for 30 min. Anti-human IgG (H+L) conjugated with R-phycoerythrin (PE) was used as a second antibody. (A) The antibodies were bound to untreated (peak 1) or sialidase-treated (peak 2) pRBC. In an inhibition assay, the antibodies were preincubated with NeuAc (peak 3) or NeuGc (peak 4) prior to binding with untreated pRBC. Cells plus the secondary antibody (peak 5) was used as background controls for the flow cytometry. (B) The antibodies were pre-incubated with increasing concentrations of NeuGc (●) or NeuAc (∘) prior to flow cytometry analysis. The percentage of binding (% MFI) was plotted against sialic acid concentrations. Human anti-nonαGal was prepared by depleting anti-αGal from the total xenoreactive antibodies in the serum (31). […] On the other hand, pre-treatment of fresh pRBC with a number of other exoglycosidases (β-galactosidase, α-N-acetylgalactosaminidase and hexosaminidase) had no effect on antibody binding (data not shown). To elucidate the nature of antigens recognized by anti-nonαGal, the antibodies were preincubated with 10 mM NeuGc or NeuAc prior to the binding with pRBC.
On the technique in general: In flow cytometry, cells or beads pass a laser one at a time.

Test [2] concerns breast cancer cell line MCF-7. Put plainly: ECL fluorescence immunoassay on fixed MCF-7 cells. The conditions noted are these: 30 mM NeuGc. Type of test: cell-based. Here is the method:
More recently, we have succeeded in detecting NeuGc antigen in breast cancer cell line MCF-7 using purified chicken anti-NeuGc antibody. Cells are seeded in chambered slides under cell culture conditions. After growing upto 80%-90% confluence (approximately 2-3 days), cells are gently washed with PBS, pH 7.2, and then fixed in 300 ul methanol for 5 min at room temperature. The chambered slides are blocked with PBS containing 2% BSA prior to the incubation with purified chicken anti-NeuGc in a ECL fluorescence immunoassay. […] Its binding specificity was confirmed by inhibition with 30 mM NeuGc.

For test [3], the system named is chicken anti-gangliosides. Put plainly: Inhibition of purified chicken anti-gangliosides binding to pRBC, flow cytometry. The conditions noted are these: pre-incubation with NeuGc. Here is the method: (§1) FIG. 5. Selective inhibition of chicken anti-NeuGc and anti-gangliosides. (A) Prior to flow cytometry analysis, both antibodies were pre-incubated with increased amount of NeuGc. (B) Both antibodies were pre-incubated with increasing amount of porcine gangliosides. To further purify chicken antibodies that bind to the thyroglobulin column, we eluted the column with PBS containing NeuGc, followed by glycine-HCI, pH 2.5. The two resultant fractions are designated as anti-NeuGc and anti-gangliosides, respectively, based on detailed characterization of their binding specificities as described below. Quantitatively, there are roughly ten times more anti-NeuGc than anti-gangliosides activity in the chicken antibodies based on flow cytometry analysis (assuming there are the same amounts of binding sites for both antibodies on pRBC). Both of antibody fractions, anti-NeuGc and anti-gangliosides, derived from further purification of the post-immune IgY bind to pRBC in flow cytometry.

Another test concerns chicken anti-NeuGc. The experiment in a line: Inhibition of purified chicken anti-NeuGc binding to pRBC, flow cytometry. The note with it: at 9.5 mM of NeuGc. Here is the method: as §1
For a further test, the system named is post-immune IgY. Put plainly: Inhibition of chicken post-immune IgY binding to pRBC, flow cytometry. The note with it: pre-incubation with 3.75 mM NeuGc. Here is the method:
FIG. 3. Flow cytometry analysis of chicken antibody raised against porcine gangliosides. The antibody sample was incubated with α-galactosidase pRBC (type O) at room temperature for 0.5 hour. Anti-chicken IgG (H+L) conjugated with FITC was used as a second antibody. Cells alone or cells plus the secondary antibody (1) were used as a background control for the flow cytometry (Becton Dickinson). Chicken antibodies (0.1 ul each) prepared from pre-immune eggs (2) and post-immune eggs (3) were analyzed by flow cytometry analysis. Post-immune antibodies were pre-incubated with 3.75 mM NeuGc (4) or 3.75 mg/ml porcine gangliosides (5) prior to the analysis. To examine the effect of ganglioside immunization and level of induced antibodies in eggs, IgY prepared from pre-immune eggs and post-immune eggs were analyzed by flow cytometry analysis using α-galactosidase-treated pRBC. […] We are collecting 20-25 eggs per hen per month.

With `CC(=O)N[C@H]1[C@H]([C@H](O)[C@H](O)CO)OC(O)(C(=O)O)C[C@@H]1O` (stereo partly shown) [NeuAc, N-acetylneuraminic acid], the “inhibition of antibody binding” value in test [1] (NeuAc as high as 6 mM) is listed as “essentially no inhibition”. In test [1], the “effect on antibody binding to pRBC” value was “no effect”.

As for `O=C(CO)N[C@H]1[C@H]([C@H](O)[C@H](O)CO)OC(O)(C(=O)O)C[C@@H]1O` (stereo partly shown) [NeuGc, N-glycolylneuraminic acid], the “inhibition of anti-NeuGc binding to MCF-7 cells” value in test [2] is reported as “inhibition”. Besides, in test [1] (anti-NeuGc purified from normal human sera), the “inhibition of human anti-NeuGc activity by pre-incubation” value is listed as “specifically inhibited”. Further, the “effect on antibody binding to pRBC” value in test [1] is “strong inhibitory effect”. Also, the “inhibition of antibody binding” value in test [1] (at 1.2 mM of NeuGc) is “Ninety”. For the same compound, the IC50 in test [1] (based on mean fluorescent intensity (MFI), read-out: I50 value (concentration that gives rise to 50% inhibition)) is approximately 73 µM. For the same compound, the “maximal inhibition of anti-gangliosides binding” value in test [3] was “approximately 30%”. Moreover, the “inhibition of anti-NeuGc binding” value with chicken anti-NeuGc is “more than 95%”. Further, in the test with post-immune IgY, the “inhibition of binding activity” value is on record as “partially inhibited”.
